From patent publication US4129737A, “Process for the preparation of an 8-alkyl-5-oxo-5,8-dihydro-pyrido(2,3-d)pyrimidine-6-carboxylic acid” (priority 1972, dated 1978)
Converted amounts (≈) assume the structure as drawn. Read-outs that look alike come from different tables or passages of the source.

Assays:
Assay type in all cases: cell-based
Staphylococcus 209 P = assay: Minimum inhibitory concentration by agar dilution, Staphylococcus 209 P; conditions: Staphylococcus
Description: (§1) (a) Trypticase soya medium (T.S.A.), which is very suitable for culturing the majority of microorganisms; it has the following composition:
(§2) (b) Ordinarily nutrient agar (N.A.), which is less rich in nutrients, corresponds to the following formulation: […]
(§3) Table I gives the minimum inhibitory concentrations (expressed in μg/cm^3) for the various microorganisms tested on each medium.
(§4) The products were tested on three Gram positive microorganisms (1 to 3) […] and on 10 Gram negative microorganisms (4 to 13).
(§5) Table (II) gives the minimum inhibitory concentrations of the compounds of Examples XII to XVI, determined on the agar medium, N.A., and expressed in μg/cm^3.

Streptococcus = assay: Minimum inhibitory concentration by agar dilution, Streptococcus Group A
Description: as §1, §2, §3, §4, §5

B. subtilis = assay: Minimum inhibitory concentration by agar dilution, B. subtilis; conditions: Bacillus subtilis
Description: as §1, §2, §3, §4, §5

Bord. bronchiseptica = assay: Minimum inhibitory concentration by agar dilution, Bord. bronchiseptica; conditions: Bordetella bronchiseptica
Description: as §1, §2, §3, §4, §5

B. pyocyaneus A22 = assay: Minimum inhibitory concentration by agar dilution, B. pyocyaneus A22; conditions: Pseudomonas aeruginosa, A22, 37° C., 18 hours, read-out: minimum inhibitory concentration (M.I.C.)
Description: as §1, §2, §3, §4, §5

B. pyocyaneus TUR = assay: Minimum inhibitory concentration by agar dilution, B. pyocyaneus TUR; conditions: Pseudomonas aeruginosa, 37° C., 18 hours
Description: as §1, §2, §3, §4

Esch. Coli 95 = assay: Minimum inhibitory concentration by agar dilution, Esch. Coli 95; conditions: Escherichia coli
Description: as §1, §2, §3, §4, §5

Klebs. pneumoniae = assay: Minimum inhibitory concentration by agar dilution, Klebs. pneumoniae; conditions: Klebsiella pneumoniae
Description: as §1, §2, §3, §4, §5

Salm. typhi = assay: Minimum inhibitory concentration by agar dilution, Salm. typhi; conditions: Salmonella enterica, 18 h
Description: as §1, §2, §3, §4, §5

Sh. sonnei = assay: Minimum inhibitory concentration by agar dilution, Sh. sonnei; conditions: Shigella sonnei, 37° C., 18 hours, read-out: minimum inhibitory concentration (M.I.C.)
Description: as §1, §2, §3, §4, §5

Pr. vulgaris = assay: Minimum inhibitory concentration by agar dilution, Pr. vulgaris; conditions: Proteus vulgaris
Description: as §1, §2, §3, §4, §5

Pr. mirabilis = assay: Minimum inhibitory concentration by agar dilution, Pr. mirabilis; conditions: Proteus mirabilis
Description: as §1, §2, §3, §4, §5

Pr. morganii = assay: Minimum inhibitory concentration by agar dilution, Pr. morganii; conditions: Morganella morganii
Description: as §1, §2, §3, §4, §5

[1] = tested on: Gram-negative microorganisms; assay: In vitro anti-microbial activity on agar media, overall; conditions: in vitro
Description: as §4

[2] = N.A. (nutrient agar, pH 6.8), 37° C., 18 hours, Table I, read-out: minimum inhibitory concentration (M.I.C.)
[3] = T.S.A. (trypticase soya medium, pH 7.3), 37° C., 18 hours, read-out: minimum inhibitory concentration (M.I.C.)
[4] = N.A. (nutrient agar, pH 6.8), Table I
[5] = T.S.A. (trypticase soya medium, pH 7.3)
[6] = T.S.A. (trypticase soya medium, pH 7.3), read-out: minimum inhibitory concentration (M.I.C.)
[7] = pH 6.8, read-out: minimum inhibitory concentration (M.I.C.)
[8] = pH 7.3, read-out: minimum inhibitory concentration (M.I.C.)
[9] = 18 h, pH 7.3, read-out: minimum inhibitory concentration (M.I.C.)
[10] = 18 h, pH 6.8, read-out: minimum inhibitory concentration (M.I.C.)

SMILES	MIC (Staphylococcus 209 P; [2])	MIC (Staphylococcus 209 P; [3])	MIC (Streptococcus; [2])	MIC (B. subtilis; [2])	MIC (B. subtilis; [3])	MIC (Bord. bronchiseptica; [2])	MIC (Bord. bronchiseptica; [3])	MIC (B. pyocyaneus A22; [4])	MIC (B. pyocyaneus A22; [5])	MIC (B. pyocyaneus TUR; [4])	MIC (B. pyocyaneus TUR; [6])	MIC (Esch. Coli 95; [2])	MIC (Klebs. pneumoniae; [2])	MIC (Klebs. pneumoniae; [3])	MIC (Salm. typhi; [7])	MIC (Salm. typhi; [8])	MIC (Sh. sonnei; [4])	MIC (Sh. sonnei; [5])	MIC (Pr. vulgaris; [2])	MIC (Pr. morganii; [2])	further results
CCn1cc(C(=O)O)c(=O)c2cnc(N3CCN(C)CC3)nc21 [Example V, 2-(4'-Methyl-piperazino)-5-oxo-8-ethyl-5,8-dihydro-pyrido(2,3-d)pyrimidine-6-carboxylic acid]	3.1 µg/mL (≈ 9.77 µM)	100 µg/mL (≈ 315 µM)	25 µg/mL (≈ 78.8 µM)	1.6 µg/mL (≈ 5.04 µM)	6.2 µg/mL (≈ 19.5 µM)	50 µg/mL (≈ 158 µM)	100 µg/mL (≈ 315 µM)	12.5 µg/mL (≈ 39.4 µM)	100 µg/mL (≈ 315 µM)	50 µg/mL (≈ 158 µM)	100 µg/mL (≈ 315 µM)	0.8 µg/mL (≈ 2.52 µM)	0.4 µg/mL (≈ 1.26 µM)	6.2 µg/mL (≈ 19.5 µM)	3.1 µg/mL (≈ 9.77 µM)	3.1 µg/mL (≈ 9.77 µM)	0.8 µg/mL (≈ 2.52 µM)	1.6 µg/mL (≈ 5.04 µM)	1.6 µg/mL (≈ 5.04 µM)	0.8 µg/mL (≈ 2.52 µM)	MIC (Streptococcus; [3]): 6.2 µg/mL (≈ 19.5 µM); MIC (Esch. Coli 95; [3]): 6.2 µg/mL (≈ 19.5 µM); MIC (Pr. vulgaris; [3]): 6.2 µg/mL (≈ 19.5 µM); MIC (Pr. mirabilis; [2]): 6.2 µg/mL (≈ 19.5 µM); MIC (Pr. mirabilis; [3]): 6.2 µg/mL (≈ 19.5 µM); MIC (Pr. morganii; [3]): 1.6 µg/mL (≈ 5.04 µM); activity against Gram-negative microorganisms [1]: particularly active against Gram-negative microorganisms
CCn1cc(C(=O)O)c(=O)c2cnc(N3CCN(Cc4ccccc4)CC3)nc21 [Example VII, 2-(4'-Benzyl-piperazino)-5-oxo-8-ethyl-5,8-dihydropyrido(2,3-d)pyrimidine-6-carboxylic acid]	0.8 µg/mL (≈ 2.03 µM)	3.1 µg/mL (≈ 7.88 µM)	0.8 µg/mL (≈ 2.03 µM)	0.4 µg/mL (≈ 1.02 µM)	0.8 µg/mL (≈ 2.03 µM)	3.1 µg/mL (≈ 7.88 µM)	> 100 µg/mL	100 µg/mL (≈ 254 µM)	> 100 µg/mL	100 µg/mL (≈ 254 µM)	> 100 µg/mL	1.6 µg/mL (≈ 4.07 µM)	0.4 µg/mL (≈ 1.02 µM)	1.6 µg/mL (≈ 4.07 µM)	1.6 µg/mL (≈ 4.07 µM)	12.5 µg/mL (≈ 31.8 µM)	1.6 µg/mL (≈ 4.07 µM)	12.5 µg/mL (≈ 31.8 µM)		3.1 µg/mL (≈ 7.88 µM)	MIC (Streptococcus; [3]): 3.1 µg/mL (≈ 7.88 µM); MIC (Esch. Coli 95; [9]): 12.5 µg/mL (≈ 31.8 µM); MIC (Pr. vulgaris; [10]): 12.5 µg/mL (≈ 31.8 µM); MIC (Pr. vulgaris; [3]): 50 µg/mL (≈ 127 µM); MIC (Pr. mirabilis; [2]): 6.2 µg/mL (≈ 15.8 µM); MIC (Pr. mirabilis; [3]): 100 µg/mL (≈ 254 µM); MIC (Pr. morganii; [9]): 12.5 µg/mL (≈ 31.8 µM); activity against Gram-negative microorganisms [1]: particularly active against Gram-negative microorganisms
CN1CCN(c2ncc3c(=O)c(C(=O)O)cn(C)c3n2)CC1 [Example X, 2-(4'-Methyl-piperazino)-5-oxo-8-methyl-5,8-dihydropyrido-(2,3-d)pyrimidine-6-carboxylic acid]	50 µg/mL (≈ 165 µM)	100 µg/mL (≈ 330 µM)	50 µg/mL (≈ 165 µM)	100 µg/mL (≈ 330 µM)	> 100 µg/mL	25 µg/mL (≈ 82.4 µM)	100 µg/mL (≈ 330 µM)	50 µg/mL (≈ 165 µM)	> 100 µg/mL	50 µg/mL (≈ 165 µM)	> 100 µg/mL	1.6 µg/mL (≈ 5.27 µM)	6.2 µg/mL (≈ 20.4 µM)	6.2 µg/mL (≈ 20.4 µM)	3.1 µg/mL (≈ 10.2 µM)	12.5 µg/mL (≈ 41.2 µM)	12.5 µg/mL (≈ 41.2 µM)	3.1 µg/mL (≈ 10.2 µM)	3.1 µg/mL (≈ 10.2 µM)	3.1 µg/mL (≈ 10.2 µM)	MIC (Streptococcus; [3]): 100 µg/mL (≈ 330 µM); MIC (Esch. Coli 95; [3]): 6.2 µg/mL (≈ 20.4 µM); MIC (Pr. vulgaris; [3]): 25 µg/mL (≈ 82.4 µM); MIC (Pr. mirabilis; [9]): 12.5 µg/mL (≈ 41.2 µM); MIC (Pr. mirabilis; [2]): 3.1 µg/mL (≈ 10.2 µM); MIC (Pr. morganii; [3]): 6.2 µg/mL (≈ 20.4 µM); activity against Gram-negative microorganisms [1]: particularly active against Gram-negative microorganisms
Cn1cc(C(=O)O)c(=O)c2cnc(N3CCN(CCO)CC3)nc21 [Example XI, 2-(4'-β-Hydroxyethyl-piperazino)-5-oxo-8-methyl-5,8-dihydropyrido(2,3-d)pyrimidine-6-carboxylic acid]	25 µg/mL (≈ 75 µM)	> 100 µg/mL	25 µg/mL (≈ 75 µM)		100 µg/mL (≈ 300 µM)		100 µg/mL (≈ 300 µM)	100 µg/mL (≈ 300 µM)	> 100 µg/mL	100 µg/mL (≈ 300 µM)	> 100 µg/mL	1.6 µg/mL (≈ 4.8 µM)	3.1 µg/mL (≈ 9.3 µM)		6.2 µg/mL (≈ 18.6 µM)	50 µg/mL (≈ 150 µM)	1.6 µg/mL (≈ 4.8 µM)	12.5 µg/mL (≈ 37.5 µM)	25 µg/mL (≈ 75 µM)	3.1 µg/mL (≈ 9.3 µM)	MIC (Streptococcus; [3]): > 100 µg/mL; MIC (B. subtilis; [10]): 12.5 µg/mL (≈ 37.5 µM); MIC (Bord. bronchiseptica; [10]): 12.5 µg/mL (≈ 37.5 µM); MIC (Esch. Coli 95; [3]): 25 µg/mL (≈ 75 µM); MIC (Klebs. pneumoniae; [9]): 12.5 µg/mL (≈ 37.5 µM); MIC (Pr. vulgaris; [3]): 50 µg/mL (≈ 150 µM); MIC (Pr. mirabilis; [2]): 6.2 µg/mL (≈ 18.6 µM); MIC (Pr. mirabilis; [3]): 25 µg/mL (≈ 75 µM); MIC (Pr. morganii; [3]): 25 µg/mL (≈ 75 µM)
CCn1cc(C(=O)O)c(=O)c2cnc(N3CCC(O)CC3)nc21 [IV, 2-(4'-Hydroxy-piperidino)-5-oxo-8-ethyl-5,8-dihydropyrido(2,3-d)pyrimidine-6-carboxylic acid]	1.6 µg/mL (≈ 5.03 µM)	50 µg/mL (≈ 157 µM)		0.8 µg/mL (≈ 2.51 µM)	3.1 µg/mL (≈ 9.74 µM)	100 µg/mL (≈ 314 µM)	> 100 µg/mL	100 µg/mL (≈ 314 µM)	> 100 µg/mL	100 µg/mL (≈ 314 µM)	> 100 µg/mL	6.2 µg/mL (≈ 19.5 µM)	0.4 µg/mL (≈ 1.26 µM)	0.8 µg/mL (≈ 2.51 µM)	6.2 µg/mL (≈ 19.5 µM)	12.5 µg/mL (≈ 39.3 µM)	3.1 µg/mL (≈ 9.74 µM)	12.5 µg/mL (≈ 39.3 µM)	3.1 µg/mL (≈ 9.74 µM)	0.4 µg/mL (≈ 1.26 µM)	MIC (Streptococcus; [10]): 12.5 µg/mL (≈ 39.3 µM); MIC (Streptococcus; [9]): 12.5 µg/mL (≈ 39.3 µM); MIC (Esch. Coli 95; [9]): 12.5 µg/mL (≈ 39.3 µM); MIC (Pr. vulgaris; [9]): 12.5 µg/mL (≈ 39.3 µM); MIC (Pr. mirabilis; [10]): 12.5 µg/mL (≈ 39.3 µM); MIC (Pr. mirabilis; [3]): 25 µg/mL (≈ 78.5 µM); MIC (Pr. morganii; [3]): 0.8 µg/mL (≈ 2.51 µM); activity against Gram-negative microorganisms [1]: particularly active against Gram-negative microorganisms
CCn1cc(C(=O)O)c(=O)c2cnc(N3CCN(CCO)CC3)nc21 [Example VI, 2-(4-β-Hydroxyethyl-piperazino)-5-oxo-8-ethyl-5,8-dihydropyrido(2,3-d)pyrimidine-6-carboxylic acid]	3.1 µg/mL (≈ 8.92 µM)		3.1 µg/mL (≈ 8.92 µM)	1.6 µg/mL (≈ 4.61 µM)	3.1 µg/mL (≈ 8.92 µM)	50 µg/mL (≈ 144 µM)	> 100 µg/mL	50 µg/mL (≈ 144 µM)	> 100 µg/mL	50 µg/mL (≈ 144 µM)	> 100 µg/mL	1.6 µg/mL (≈ 4.61 µM)	0.4 µg/mL (≈ 1.15 µM)	1.6 µg/mL (≈ 4.61 µM)	12.5 µg/mL (≈ 36 µM)	6.2 µg/mL (≈ 17.8 µM)	1.6 µg/mL (≈ 4.61 µM)	1.6 µg/mL (≈ 4.61 µM)	50 µg/mL (≈ 144 µM)	1.6 µg/mL (≈ 4.61 µM)	MIC (Staphylococcus 209 P; [9]): 12.5 µg/mL (≈ 36 µM); MIC (Streptococcus; [9]): 12.5 µg/mL (≈ 36 µM); MIC (Esch. Coli 95; [3]): 3.1 µg/mL (≈ 8.92 µM); MIC (Pr. vulgaris; [3]): 6.2 µg/mL (≈ 17.8 µM); MIC (Pr. mirabilis; [9]): 12.5 µg/mL (≈ 36 µM); MIC (Pr. mirabilis; [2]): 3.1 µg/mL (≈ 8.92 µM); MIC (Pr. morganii; [3]): 1.6 µg/mL (≈ 4.61 µM); activity against Gram-negative microorganisms [1]: particularly active against Gram-negative microorganisms
